pIC50, pKi: −log10 of the molar value.
Experiments:
[1] = target: Protein kinase C alpha type (Homo sapiens, UniProt P17252); experiment: Inhibition of PKCalpha
[2] = target: T1, Protein kinase C theta type (Homo sapiens, UniProt Q04759); experiment: Inhibition of PKCtheta
[3] = target: Protein kinase C delta type (Homo sapiens, UniProt Q05655); experiment: Inhibition of PKCdelta
[4] = target: T1, Protein kinase C theta type; experiment: Inhibition of PKCtheta-mediated IL-2 production by cell based assay
[5] = Selectivity ratio of Ki for Src to Ki for PKCtheta
[6] = Selectivity ratio of Ki for PKA to Ki for PKCtheta
[7] = Selectivity ratio of Ki for GSK3beta to Ki for PKCtheta
[8] = Permeability from apical to basolateral side of human Caco2 cells; type: ADME, cell-based; settings: Caco-2, read-out: permeability
[9] = Permeability from basolateral to apical side of human Caco2 cells; type: ADME, cell-based; settings: Caco-2, read-out: permeability
[10] = target: Tyrosine-protein kinase Lck (Homo sapiens, UniProt P06239); experiment: Inhibition of LCK
[11] = target: Tyrosine-protein kinase ITK/TSK (Homo sapiens, UniProt Q08881); experiment: Inhibition of ITK
[12] = target: Tyrosine-protein kinase Fyn (Homo sapiens, UniProt P06241); experiment: Inhibition of FYN
[13] = target: Tyrosine-protein kinase Lyn (Homo sapiens, UniProt P07948); experiment: Inhibition of LYN
[14] = target: Tyrosine-protein kinase ZAP-70 (Homo sapiens, UniProt P43403); experiment: Inhibition of ZAP70
[15] = target: RAF proto-oncogene serine/threonine-protein kinase (Homo sapiens, UniProt P04049); experiment: Inhibition of c-Raf
[16] = target: Mitogen-activated protein kinase 3 (Homo sapiens, UniProt P27361); experiment: Inhibition of ERK1
[17] = target: Tyrosine-protein kinase JAK2 (Homo sapiens, UniProt O60674); experiment: Inhibition of JAK2
[18] = target: Rho-associated protein kinase 1 (Homo sapiens, UniProt Q13464); experiment: Inhibition of ROCK1
[19] = target: Receptor-type tyrosine-protein kinase FLT3 (Homo sapiens, UniProt P36888); experiment: Inhibition of Flt3
[20] = target: Phosphatidylinositol 4,5-bisphosphate 3-kinase catalytic subunit gamma isoform (Homo sapiens, UniProt P48736); experiment: Inhibition of PI3Kgamma
[21] = target: Protein kinase C beta type (Homo sapiens, UniProt P05771); experiment: Inhibition of PKCbeta
[22] = target: Protein kinase C epsilon type (Homo sapiens, UniProt Q02156); experiment: Inhibition of PKCepsilon
[23] = target: Phosphatidylinositol 4,5-bisphosphate 3-kinase catalytic subunit alpha isoform (Homo sapiens, UniProt P42336); experiment: Inhibition of PI3Kalpha
[24] = target: Cyclin-dependent kinase 2 (Homo sapiens, UniProt P24941); experiment: Inhibition of CDK2
[25] = target: Vascular endothelial growth factor receptor 2 (Homo sapiens, UniProt P35968); experiment: Inhibition of KDR
[26] = target: Serine/threonine-protein kinase PLK1 (Homo sapiens, UniProt P53350); experiment: Inhibition of Plk
[27] = target: Mitogen-activated protein kinase 10 (Homo sapiens, UniProt P53779); experiment: Inhibition of JNK3
[28] = Clearance in mouse at 3 mg/kg, iv and 10 mg/kg, po; type: ADME, organism-based; settings: in vivo
[29] = Half life in mouse at 3 mg/kg, iv and 10 mg/kg, po; type: ADME, organism-based; settings: in vivo
[30] = Apparent volume of distribution in mouse at 3 mg/kg, iv and 10 mg/kg, po; type: ADME, organism-based; settings: in vivo, read-out: Vz
[31] = Volume of distribution at steady state in mouse at 3 mg/kg, iv and 10 mg/kg, po; type: ADME, organism-based; settings: in vivo, read-out: Vdss
[32] = Mean residence time in mouse at 3 mg/kg, iv and 10 mg/kg, po; type: ADME, organism-based; settings: in vivo
[33] = Oral bioavailability in mouse at 10 mg/kg; type: ADME, organism-based; settings: in vivo
Plasma = experiment: fCmax in Staphlyococcal enterotoxin B challenged Balb/c mouse plasma at 100 mg/kg, po after 2 hrs; type: ADME, organism-based; parameters: dose 100 mg/kg, route oral; settings: in vivo

Protein kinase C delta type, sequence (Q05655 whole entry): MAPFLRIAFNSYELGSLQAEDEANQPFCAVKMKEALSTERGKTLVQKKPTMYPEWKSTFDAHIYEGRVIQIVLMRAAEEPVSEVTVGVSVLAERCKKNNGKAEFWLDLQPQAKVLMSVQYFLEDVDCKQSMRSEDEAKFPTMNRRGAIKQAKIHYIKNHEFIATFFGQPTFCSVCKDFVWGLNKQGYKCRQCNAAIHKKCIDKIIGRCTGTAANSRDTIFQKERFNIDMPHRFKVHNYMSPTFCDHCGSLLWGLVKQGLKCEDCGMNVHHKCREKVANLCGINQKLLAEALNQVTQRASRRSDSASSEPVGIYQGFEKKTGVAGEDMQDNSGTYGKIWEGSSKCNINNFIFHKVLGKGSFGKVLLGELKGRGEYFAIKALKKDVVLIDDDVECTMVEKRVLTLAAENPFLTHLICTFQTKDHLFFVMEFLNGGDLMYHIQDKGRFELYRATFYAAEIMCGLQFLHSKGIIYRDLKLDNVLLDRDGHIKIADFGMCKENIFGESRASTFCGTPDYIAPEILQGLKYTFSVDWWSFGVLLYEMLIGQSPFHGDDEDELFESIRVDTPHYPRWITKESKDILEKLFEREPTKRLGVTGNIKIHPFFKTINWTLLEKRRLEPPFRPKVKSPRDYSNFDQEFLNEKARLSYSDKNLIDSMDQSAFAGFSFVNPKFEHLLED
T1 sequence (Q04759 whole entry): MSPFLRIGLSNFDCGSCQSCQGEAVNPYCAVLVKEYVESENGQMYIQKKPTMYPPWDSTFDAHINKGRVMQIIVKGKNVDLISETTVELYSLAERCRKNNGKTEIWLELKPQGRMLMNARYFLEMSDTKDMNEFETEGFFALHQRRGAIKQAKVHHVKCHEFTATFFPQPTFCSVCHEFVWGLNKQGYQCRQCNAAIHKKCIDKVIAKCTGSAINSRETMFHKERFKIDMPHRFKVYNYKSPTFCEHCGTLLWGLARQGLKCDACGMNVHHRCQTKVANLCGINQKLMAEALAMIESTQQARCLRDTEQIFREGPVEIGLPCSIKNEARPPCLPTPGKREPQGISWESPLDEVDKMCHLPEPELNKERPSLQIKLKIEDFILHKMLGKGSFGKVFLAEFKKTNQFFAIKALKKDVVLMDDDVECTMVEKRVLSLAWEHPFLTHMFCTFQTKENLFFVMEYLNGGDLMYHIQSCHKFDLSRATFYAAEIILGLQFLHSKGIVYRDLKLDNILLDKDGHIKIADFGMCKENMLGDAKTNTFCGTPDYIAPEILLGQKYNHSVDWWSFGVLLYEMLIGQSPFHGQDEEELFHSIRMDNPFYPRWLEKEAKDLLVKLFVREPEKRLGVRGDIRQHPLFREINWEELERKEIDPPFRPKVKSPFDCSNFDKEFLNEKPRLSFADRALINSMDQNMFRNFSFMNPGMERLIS
Tyrosine-protein kinase Lyn, sequence (P07948 whole entry): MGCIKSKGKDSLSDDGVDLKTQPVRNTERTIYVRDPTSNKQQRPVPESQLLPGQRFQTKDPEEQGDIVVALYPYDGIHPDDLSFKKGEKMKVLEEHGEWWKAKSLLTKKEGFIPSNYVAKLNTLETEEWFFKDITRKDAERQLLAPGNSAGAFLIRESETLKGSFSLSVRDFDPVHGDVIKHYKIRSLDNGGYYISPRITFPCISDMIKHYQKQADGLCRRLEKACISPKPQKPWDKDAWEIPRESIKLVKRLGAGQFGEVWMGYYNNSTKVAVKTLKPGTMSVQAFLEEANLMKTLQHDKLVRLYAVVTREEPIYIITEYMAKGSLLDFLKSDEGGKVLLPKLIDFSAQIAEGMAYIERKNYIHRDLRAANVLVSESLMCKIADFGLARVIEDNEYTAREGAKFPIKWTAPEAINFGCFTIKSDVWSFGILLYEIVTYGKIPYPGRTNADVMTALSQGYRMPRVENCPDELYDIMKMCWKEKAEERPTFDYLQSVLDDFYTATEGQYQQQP
Vascular endothelial growth factor receptor 2, sequence (P35968 whole entry): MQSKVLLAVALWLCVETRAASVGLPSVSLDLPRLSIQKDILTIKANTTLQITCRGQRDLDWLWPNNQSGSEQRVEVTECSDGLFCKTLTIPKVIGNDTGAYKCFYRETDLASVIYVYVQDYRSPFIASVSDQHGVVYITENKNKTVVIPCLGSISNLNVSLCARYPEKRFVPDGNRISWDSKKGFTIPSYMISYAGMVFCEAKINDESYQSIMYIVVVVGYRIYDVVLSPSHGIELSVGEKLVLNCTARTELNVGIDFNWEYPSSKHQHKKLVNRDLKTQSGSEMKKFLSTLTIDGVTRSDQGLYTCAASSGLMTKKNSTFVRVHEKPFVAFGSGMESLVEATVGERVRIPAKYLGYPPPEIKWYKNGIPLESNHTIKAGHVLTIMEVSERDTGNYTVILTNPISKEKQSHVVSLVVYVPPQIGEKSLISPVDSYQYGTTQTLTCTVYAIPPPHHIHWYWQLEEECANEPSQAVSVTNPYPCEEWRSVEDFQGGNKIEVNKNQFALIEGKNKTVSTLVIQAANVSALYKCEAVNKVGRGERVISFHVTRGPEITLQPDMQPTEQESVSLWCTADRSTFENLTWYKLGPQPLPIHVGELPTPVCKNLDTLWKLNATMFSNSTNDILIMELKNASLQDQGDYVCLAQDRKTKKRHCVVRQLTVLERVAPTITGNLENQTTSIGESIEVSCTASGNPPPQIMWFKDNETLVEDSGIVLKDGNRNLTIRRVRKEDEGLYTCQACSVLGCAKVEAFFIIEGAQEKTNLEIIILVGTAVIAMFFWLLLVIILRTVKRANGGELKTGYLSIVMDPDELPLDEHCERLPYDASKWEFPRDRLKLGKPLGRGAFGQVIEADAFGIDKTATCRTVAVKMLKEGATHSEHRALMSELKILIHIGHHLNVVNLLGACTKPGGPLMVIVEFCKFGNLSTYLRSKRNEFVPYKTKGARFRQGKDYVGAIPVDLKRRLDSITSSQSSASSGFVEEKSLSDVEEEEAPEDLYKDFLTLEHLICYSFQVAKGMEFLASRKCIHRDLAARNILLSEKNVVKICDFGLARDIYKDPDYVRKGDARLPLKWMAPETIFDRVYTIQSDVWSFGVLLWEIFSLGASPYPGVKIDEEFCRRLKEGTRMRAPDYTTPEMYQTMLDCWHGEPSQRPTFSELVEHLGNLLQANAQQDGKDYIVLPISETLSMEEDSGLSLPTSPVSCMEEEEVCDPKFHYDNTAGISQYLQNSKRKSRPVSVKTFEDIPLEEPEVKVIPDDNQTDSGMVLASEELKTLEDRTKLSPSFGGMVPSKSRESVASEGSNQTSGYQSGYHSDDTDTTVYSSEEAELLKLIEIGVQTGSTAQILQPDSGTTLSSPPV
Mitogen-activated protein kinase 3, sequence (P27361 whole entry): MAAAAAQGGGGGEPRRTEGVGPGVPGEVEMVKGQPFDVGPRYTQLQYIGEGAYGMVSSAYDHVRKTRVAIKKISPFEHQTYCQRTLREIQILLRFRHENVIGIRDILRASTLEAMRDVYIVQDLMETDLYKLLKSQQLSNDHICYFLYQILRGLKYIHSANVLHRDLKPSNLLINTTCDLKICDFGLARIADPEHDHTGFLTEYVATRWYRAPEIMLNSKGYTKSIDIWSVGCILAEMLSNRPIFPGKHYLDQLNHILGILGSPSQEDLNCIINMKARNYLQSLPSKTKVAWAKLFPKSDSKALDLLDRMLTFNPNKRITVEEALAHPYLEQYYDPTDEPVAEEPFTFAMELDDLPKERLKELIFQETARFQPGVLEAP
Tyrosine-protein kinase Lck, sequence (P06239 whole entry): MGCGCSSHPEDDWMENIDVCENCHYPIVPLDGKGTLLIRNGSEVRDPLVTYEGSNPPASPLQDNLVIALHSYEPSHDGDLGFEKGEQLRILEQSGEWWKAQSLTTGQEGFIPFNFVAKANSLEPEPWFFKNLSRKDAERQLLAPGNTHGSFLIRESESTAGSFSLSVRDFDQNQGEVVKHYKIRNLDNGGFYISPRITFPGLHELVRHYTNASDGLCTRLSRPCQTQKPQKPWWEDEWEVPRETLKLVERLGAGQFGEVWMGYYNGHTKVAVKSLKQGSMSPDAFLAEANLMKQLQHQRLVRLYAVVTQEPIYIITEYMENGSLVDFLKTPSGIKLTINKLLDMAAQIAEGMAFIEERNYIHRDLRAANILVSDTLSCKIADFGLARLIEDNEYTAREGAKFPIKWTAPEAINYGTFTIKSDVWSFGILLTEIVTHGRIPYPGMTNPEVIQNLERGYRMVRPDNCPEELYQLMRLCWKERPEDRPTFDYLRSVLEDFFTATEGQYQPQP

## CC(C)C[C@H]1CN(c2ccc(C3CC3)c(C(=O)c3cccnc3N)n2)CCN1
[1]
  pKi: 5.58

## CC(C)C[C@H]1CN(c2ccc(Cc3ccccc3)c(C(=O)c3cccnc3N)n2)CCN1
[1]
  pKi: < 5.90

## Cc1cc(C(=O)c2cccnc2N)nc(N2CCN[C@@H](CC(C)C)C2)c1
[1]
  pKi: 6.34

## CC(C)C[C@H]1CN(c2cccc(C(=O)c3cccnc3N)n2)CCN1
[2]
  pKi: 8.52
[3]
  pKi: 7.70
[1]
  pKi: 7.27
[4]
  pIC50: 6.78
[5]
  Ratio Ki: > 1400
[6]
  Ratio Ki: 60
[7]
  Ratio Ki: 143

## Nc1ncccc1C(=O)c1cccc(N2CCCNCC2)n1
[8]
  Papp A→B: 90 nm/s
[9]
  Papp B→A: 110 nm/s

## CC(C)C[C@H]1CN(c2ccc(C(F)(F)F)c(C(=O)c3cccnc3N)n2)CCN1
[2]
  pKi: 8.52
[3]
  pKi: 7.43
[1]
  pKi: 7.12
[4]
  pIC50: 7.28
[10]
  pIC50: < 5.70
[11]
  pIC50: < 5.70
[12]
  pIC50: < 5.70
[13]
  pIC50: < 5.70
[14]
  pIC50: < 5.70
[15]
  pIC50: < 5.70
[16]
  pIC50: < 5.70
[17]
  pKi: < 5.40
[18]
  pKi: < 5.40
[19]
  pKi: 6.24
[20]
  pKi: < 5.40
[21]
  pKi: 6.59
[22]
  pKi: 7.77
[23]
  pKi: < 5.40
[24]
  pKi: < 5.40
[25]
  pKi: < 5.40
[26]
  pKi: < 5.40
[27]
  pKi: < 5.40
[28]
  clearance: 12.2 L/h/kg
[29]
  half-life: 1.3 h
[30]
  Vd: 19.7 L/kg
[31]
  Vd: 15.8 L/kg
[32]
  MRT: 1.4 h
[33]
  bioavailability: 45%
Plasma
  fCmax: 150 nM

## CC(C)C[C@H]1CN(c2ccc(Cl)c(C(=O)c3cccnc3N)n2)CCN1
[2]
  pKi: 8.70
[3]
  pKi: 7.66
[1]
  pKi: 7.31
[4]
  pIC50: 7.24
[5]
  Ratio Ki: > 4000
[6]
  Ratio Ki: 38
[7]
  Ratio Ki: 255

## CCCc1ccc(N2CCN[C@@H](CC(C)C)C2)nc1C(=O)c1cccnc1N
[1]
  pKi: 5.91

## CC(C)C[C@H]1CN(c2ccc(OC(F)F)c(C(=O)c3cccnc3N)n2)CCN1
[2]
  pKi: 8.15
[3]
  pKi: 7.06
[1]
  pKi: 6.34
[4]
  pIC50: 6.64
[5]
  Ratio Ki: > 570
[6]
  Ratio Ki: 84
[7]
  Ratio Ki: > 570

## Nc1ncccc1C(=O)c1cccc(N2CCC(N)C2)n1 (configuration not stated)
[2]
  pKi: 5.82

From ChEMBL document CHEMBL2046282, “Structure-based optimization of aminopyridines as PKCθ inhibitors” (Bioorg Med Chem Lett, 2012)
